# Assays:
# Assay type in all cases: biochemical
# Parameters in all cases: from tissue
# ABHD6 = target: T1, ABHD6 (Mus musculus, UniProt Q8R2Y0); experiment: In vitro competitive ABPP, % inhibition at fixed concentration, ABHD6
# T1 sequence (Q8R2Y0 1-336): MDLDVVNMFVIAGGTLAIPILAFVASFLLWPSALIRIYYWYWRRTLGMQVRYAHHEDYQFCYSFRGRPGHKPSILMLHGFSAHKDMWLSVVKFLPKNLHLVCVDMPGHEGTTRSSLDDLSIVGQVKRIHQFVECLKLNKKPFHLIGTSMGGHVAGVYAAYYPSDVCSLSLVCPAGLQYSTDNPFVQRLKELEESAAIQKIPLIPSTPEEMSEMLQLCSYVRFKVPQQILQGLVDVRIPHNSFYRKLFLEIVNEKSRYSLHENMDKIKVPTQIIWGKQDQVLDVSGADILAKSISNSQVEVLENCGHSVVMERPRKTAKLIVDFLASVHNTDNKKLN
# How it was run: (§1)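 Mouse brain membrane proteome or cell lysate at 1.0 mg/ml was preincubated with inhibitor for 30 min at 37° C, then labelled with FP-Rh for another 30 min. After SDS-PAGE, activity was quantified from the fluorescent intensity of the MAGL, ABHD6 and FAAH bands.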
# FAAH = target: T2, FAAH (Mus musculus, UniProt O08914); experiment: In vitro competitive ABPP, % inhibition at fixed concentration, FAAH
# T2 sequence (O08914 1-579): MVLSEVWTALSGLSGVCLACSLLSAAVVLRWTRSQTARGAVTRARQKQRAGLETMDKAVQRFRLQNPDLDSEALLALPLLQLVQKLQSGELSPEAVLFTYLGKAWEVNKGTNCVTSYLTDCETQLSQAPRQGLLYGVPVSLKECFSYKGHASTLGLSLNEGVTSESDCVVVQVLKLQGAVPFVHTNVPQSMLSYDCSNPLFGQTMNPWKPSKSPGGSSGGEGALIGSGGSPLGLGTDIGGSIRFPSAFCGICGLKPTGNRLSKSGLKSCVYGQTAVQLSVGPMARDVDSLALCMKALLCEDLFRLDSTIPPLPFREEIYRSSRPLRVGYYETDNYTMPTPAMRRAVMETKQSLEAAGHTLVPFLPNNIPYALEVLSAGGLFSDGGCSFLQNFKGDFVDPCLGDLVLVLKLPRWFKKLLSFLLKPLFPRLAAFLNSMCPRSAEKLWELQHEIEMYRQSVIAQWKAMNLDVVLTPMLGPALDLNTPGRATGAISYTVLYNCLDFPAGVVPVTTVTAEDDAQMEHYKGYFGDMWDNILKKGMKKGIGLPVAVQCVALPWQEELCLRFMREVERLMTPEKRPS
# How it was run: as §1
# MAGL = target: T3, MAGL (Mus musculus, UniProt O35678); experiment: In vitro competitive ABPP, % inhibition at fixed concentration, MAGL
# T3 sequence (O35678 1-303): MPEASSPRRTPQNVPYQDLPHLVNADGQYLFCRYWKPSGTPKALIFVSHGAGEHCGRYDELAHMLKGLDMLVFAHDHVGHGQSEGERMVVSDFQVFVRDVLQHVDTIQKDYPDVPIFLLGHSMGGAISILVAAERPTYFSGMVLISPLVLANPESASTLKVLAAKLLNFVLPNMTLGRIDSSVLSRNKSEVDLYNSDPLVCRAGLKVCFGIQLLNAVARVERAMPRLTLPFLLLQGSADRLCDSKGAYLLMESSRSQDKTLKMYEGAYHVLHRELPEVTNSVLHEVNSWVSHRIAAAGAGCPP
# How it was run: as §1
SMILES,inhibition at 1 µM (ABHD6) [%],inhibition at 1 µM (FAAH) [%],inhibition at 1 µM (MAGL) [%]
"Cc1ccccc1-c1ccc(CN2CCN(C(=O)ON3C(=O)CCC3=O)CC2)c(C)n1 [Example 182, 2,5-Dioxopyrrolidin-1-yl 4-{[2-methyl-6-(2-methylphenyl)pyridin-3-yl]methyl}piperazine-1-carboxylate]",> 75,< 25,25 to 75
"Cc1nc(-c2ccccc2F)ccc1CN1CCN(C(=O)ON2C(=O)CCC2=O)CC1 [Example 183, 2,5-Dioxopyrrolidin-1-yl 4-{[6-(2-fluorophenyl)-2-methylpyridin-3-yl]methyl}piperazine-1-carboxylate]",> 75,< 25,25 to 75
"Cc1cccc(-c2ccc(CN3CCN(C(=O)ON4C(=O)CCC4=O)CC3)c(C)n2)c1 [Example 184, 2,5-Dioxopyrrolidin-1-yl 4-{[2-methyl-6-(3-methylphenyl)pyridin-3-yl]methyl}piperazine-1-carboxylate]",25 to 75,< 25,> 75
"Cc1nc(-c2cccc(F)c2)ccc1CN1CCN(C(=O)ON2C(=O)CCC2=O)CC1 [Example 185, 2,5-Dioxopyrrolidin-1-yl 4-{[6-(3-fluorophenyl)-2-methylpyridin-3-yl]methyl}piperazine-1-carboxylate]",> 75,< 25,> 75
"CC(C)c1cc(N2CCCC2)ccc1CN1CCN(C(=O)ON2C(=O)CCC2=O)CC1 [Example 186, 2,5-Dioxopyrrolidin-1-yl 4-{[2-(propan-2-yl)-4-(pyrrolidin-1-yl)phenyl]methyl}piperazine-1-carboxylate]",25 to 75,< 25,25 to 75

# More lines, now with the values ahead:
inhibition at 1 µM (ABHD6) [%],inhibition at 1 µM (FAAH) [%],inhibition at 1 µM (MAGL) [%],SMILES
25 to 75,< 25,25 to 75,"CC(C)c1cc(N2CCOCC2)ccc1CN1CCN(C(=O)ON2C(=O)CCC2=O)CC1 [Example 187, 2,5-Dioxopyrrolidin-1-yl 4-{[4-(morpholin-4-yl)-2-(propan-2-yl)phenyl]methyl}piperazine-1-carboxylate]"
< 25,< 25,25 to 75,"O=C(ON1C(=O)CCC1=O)N1CCN(Cc2cccc(Cl)c2C(=O)N2CCCC2)CC1 [Example 190, 2,5-Dioxopyrrolidin-1-yl 4-{[3-chloro-2-(pyrrolidine-1-carbonyl)phenyl]methyl}piperazine-1-carboxylate]"
25 to 75,< 25,25 to 75,"O=C(ON1C(=O)CCC1=O)N1CCN(Cc2ccc(C(=O)N3CCOCC3)cc2Cl)CC1 [Example 192, 2,5-dioxopyrrolidin-1-yl 4-{[2-chloro-4-(morpholine-4-carbonyl)phenyl]methyl}piperazine-1-carboxylate]"
25 to 75,< 25,25 to 75,"O=C(ON1C(=O)CCC1=O)N1CCN(Cc2ccc(C(=O)N3CCCC3)cc2Cl)CC1 [Example 193, 2,5-Dioxopyrrolidin-1-yl 4-{[2-chloro-4-(pyrrolidine-1-carbonyl)phenyl]methyl}piperazine-1-carboxylate]"
25 to 75,< 25,25 to 75,"O=C(ON1C(=O)CCC1=O)N1CCN(Cc2ccc(C(=O)N3CCC3)cc2Cl)CC1 [Example 194, 2,5-Dioxopyrrolidin-1-yl 4-{[4-(azetidine-1-carbonyl)-2-chlorophenyl]methyl}piperazine-1-carboxylate]"
< 25,< 25,< 25,"O=C(ON1C(=O)CCC1=O)N1CCN(Cc2ccc(Cl)cc2C(=O)N2CCOCC2)CC1 [Example 195, 2,5-Dioxopyrrolidin-1-yl 4-{[4-chloro-2-(morpholine-4-carbonyl)phenyl]methyl}piperazine-1-carboxylate]"
